Patent US20240269158A1, “THERAPEUTIC AGENTS AND METHODS FOR TREATMENT OF BARTONELLOSIS” (THE ADMINISTRATORS OF THE TULANE EDUCATIONAL FUND, priority 2021, published 2024)
Like-named read-outs stand apart in the source and are kept apart here.

Tests used:
B. henselae = experiment: MIC assay in liquid culture media (OD600); assay type: cell-based, Bartonella henselae
Experimental: (§1) The B. henselae strains used were San Antonio 2, 267HO04, a human clinical isolate and B. vinsonii subsp. berkhoffii. Both the bacteria were initially grown on tryptic soy agar (TSA) supplemented with 5% defibrinated sheep blood plates that were either pre-made (Remel, R01198) or homemade, in a humidified atmosphere at 37° C. with 5% CO2 for 7 days. For the preparation of liquid cultures, an individual well-grown colony from the plate was resuspended in 15 ml Falcon tubes containing 3 mL of either Schneider's insect media supplemented with 10% FBS, or Grace's insect media (Gibco, 11605-094) supplemented with 10% FBS, or BAPGM serum-free liquid media. The cultures grew for 7 more days in the atmosphere as above without shaking. The number of viable bacteria was determined by either plating serial dilutions of the culture on plates for CFU or by live/dead staining. Before every experiment, bacteria were mixed well and passed through 22-gauge needle to break large clumps of bacteria.
(§2) Optical density (OD) of 7-day old bacterial liquid culture that was grown from an individual colony was measured using a spectrophotometer (Bio-Rad, SmartSpec 300, 170-2501). Bacterial culture was then diluted down to an OD of 0.1 ? 3×10^8 cfu/ml with the respective media.
(§3) To determine the MIC of the antibiotics and for the visualization of the bacterial growth, a clear 96-well plate was used. Into each well of a 96-well plate, 50 μl of the 0.1 OD bacterial culture and 50 μl of the liquid media containing antibiotics were added to the wells bringing the total volume to 100 μl of 0.05 OD bacteria (CFU ? 1.5×10^7) in each well. Wells containing only bacteria with solvent used in the dilution of the antibiotics served as a positive control to verify the growth of bacteria. As a negative control, wells containing only media and solvents were used. Each concentration of diluted antibiotic was run in 4 replicates to minimize the error rate. The 96-well plate was covered with the lid and incubated at 37° C. with 5% CO2. OD of the culture was read after 48 hrs and 96 hrs using a hybrid multi-mode microplate reader (Biotek, Synergy H4 hybrid reader) at OD600. The assay was repeated three times.
(§4) Therapeutic agent stocks were prepared in the following solvents: 10 mg/ml of ceftriaxone (USP), doxycycline (Fisher scientific, D9891-1G), gentamicin (Fisher scientific, 1405-41-0), ampicillin (Fisher scientific, 69-52-3) and azlocillin (Flightpath) in sterile cell culture grade water, whereas 5 mg/ml of azithromycin (Sigma, PZ0007-5MG) was dissolved in sterile cell culture grade DMSO. Antibiotics were then aliquoted and stored at either −80° C. or −20° C. until further use. On the day of assay, these stock concentrations were diluted to 1 mg/ml and 100 μg/ml in the respected bacterial culture media for MIC and cell-free, liquid culture MBC assays. For the DH82 cell-based MBC assay, antibiotics were diluted in EMEM media supplemented with 15% heat inactivated FBS.
(§5) The determination of susceptibility to therapeutic agents was performed in liquid culture media. Six different therapeutic agents were tested with multiple different concentrations against B. henselae and B. vinsonii. Therapeutic agent concentrations tested were as follows: Ceftriaxone 0.001, 0.01, 0.1, 0.3, 0.5, 1, 2, and 5 μg/ml; doxycycline 0.001, 0.01, 0.1, 0.3, 0.5, 1, 2, 5, and 10 μg/ml, gentamicin: 0.01, 0.1, 0.3, 0.5, 1, 2, 4, 8, and 16 μg/ml, and azithromycin: 0.001, 0.005, 0.02, 0.1, 0.3, 0.5, 1, 2, 5, and 10 μg/ml, were tested based on previous antibiotic susceptibility studies. The following azlocillin dilutions were included: 0.001, 0.005, 0.01, 0.02, 0.5, 1, 2, and 5 μg/ml. The ampicillin dilutions included were as follows: 0.001, 0.005, 0.01, 0.02, 0.5, 1, 2, 4, and 8 μg/ml. Both the species of Bartonella were susceptible to all the antibiotics that were used in BAPGM and Grace's culture liquid mediums. […]

B. vinsonii = experiment: MIC assay in liquid culture media (OD600); assay type: cell-based, B. vinsonii subsp. berkhoffii; conditions: Grace's insect media
Experimental: as §1, §2, §3, §4, §5

[1] = system: B. henselae and B. vinsonii; experiment: Cell-free MBC assay, summary over both species; assay type: cell-based, Bartonella; conditions: 10 μg/ml
Experimental: Briefly, the bacterial culture that was treated with therapeutic agents for 96 hrs was collected into a 1.5 ml microcentrifuge tubes and centrifuged at 7000 rpm for 10 min. The supernatant was removed, and the bacterial pellet was washed with 1×PBS twice. The bacterial pellet was then resuspended in 100 μL of 1×PBS, plated onto blood agar plates and incubated at 37° C. with 5% CO2 for about 14 days. This assay was repeated three times with all the 6 different antibiotics (azlocillin, azithromycin, ceftriaxone, doxycycline, gentamicin and ampicillin) and at different concentrations.
For this assay, both B. henselae and B. vinsonii were grown in Grace's insect media and were tested against all of the 6 antibiotics (ceftriaxone, doxycycline, gentamicin, azithromycin, azlocillin, ampicillin). […] However, ceftriaxone, gentamicin, azithromycin, and azlocillin were all bactericidal and completely eliminated the growth at concentrations below 10 µg/ml. Table 2 provides comparison of MBCs for B. henselae and B. vinsonii strains in cell-free liquid culture medium determined by incubating the bacteria with antibiotics in a 96-well plate and plating on tryptic soy agar supplemented with 5% sheep blood. Additionally, MBC for B. henselae determined by DH82 cell-based assay (right column) is provided.

[2] = system: B. henselae and B. vinsonii; experiment: MIC assay, summary over both species; assay type: cell-based, Bartonella; conditions: BAPGM and Grace's liquid media
Experimental: as §2, §3
The determination of susceptibility to therapeutic agents was performed in liquid culture media. Six different therapeutic agents were tested with multiple different concentrations against B. henselae and B. vinsonii. Therapeutic agent concentrations tested were as follows: Ceftriaxone 0.001, 0.01, 0.1, 0.3, 0.5, 1, 2, and 5 μg/ml; doxycycline 0.001, 0.01, 0.1, 0.3, 0.5, 1, 2, 5, and 10 μg/ml, gentamicin: 0.01, 0.1, 0.3, 0.5, 1, 2, 4, 8, and 16 μg/ml, and azithromycin: 0.001, 0.005, 0.02, 0.1, 0.3, 0.5, 1, 2, 5, and 10 μg/ml, were tested based on previous antibiotic susceptibility studies. The following azlocillin dilutions were included: 0.001, 0.005, 0.01, 0.02, 0.5, 1, 2, and 5 μg/ml. The ampicillin dilutions included were as follows: 0.001, 0.005, 0.01, 0.02, 0.5, 1, 2, 4, and 8 μg/ml. Both the species of Bartonella were susceptible to all the antibiotics that were used in BAPGM and Grace's culture liquid mediums. MICs ranged from 0.01 to 0.1 μg/ml for ceftriaxone, doxycycline, and ampicillin, 2.0-4.0 μg/ml for gentamicin, 0.1-0.5 μg/ml for azithromycin, and 0.001-0.01 μg/ml for azlocillin. […] However, both the bacteria were not susceptible towards any of the antibiotics when tested in Schneider's insect medium (Table 1).

[3] = Bartonella henselae, BAPGM, read-out: MIC
[4] = Bartonella henselae, Grace's insect media, read-out: MIC
[5] = Bartonella henselae, Schneider's insect medium, read-out: MIC

Row | Molecule | MIC (B. henselae; [3]) [µg/mL] | MIC (B. henselae; [4]) [µg/mL] | MIC (B. henselae; [5]) [µg/mL] | MIC (B. vinsonii; read-out: MIC) [µg/mL] | growth on blood agar plates [1] | MICs ranged [2] [µg/mL] | susceptibility / inhibition of growth [2] | MIC (B. henselae; BAPGM) [µg/mL] | MIC (B. henselae; Grace's insect media) [µg/mL] | MIC (B. henselae; Schneider's insect medium) [µg/mL] | MIC (B. vinsonii) [µg/mL]
1 | CO/N=C(\C(=O)N[C@@H]1C(=O)N2C(C(=O)O)=C(CSc3nc(=O)c(=O)[nH]n3C)CS[C@H]12)c1csc(N)n1 [Ceftriaxone, ceftriaxone] | 0.01 to 0.1 | 0.01 to 0.1 | > 0.3 | 0 to 0.01 | no growth on blood agar plates | – | – | – | – | – | –
2 | CC1(C)S[C@@H]2[C@H](NC(=O)[C@H](NC(=O)N3CCNC3=O)c3ccccc3)C(=O)N2[C@H]1C(=O)O [Azlocillin, azlocillin] | 0.01 to 0.02 | 0.005 to 0.01 | > 2 | 0.001 to 0.005 | no growth on blood agar plates | 0.001 to 0.01 | most effective in inhibiting the growth of both the species of Bartonella | – | – | – | –
3 | gentamicin | – | – | – | – | – | 2.0 to 4.0 | – | 0.1 to 0.5 | 2.0 to 4.0 | >1 | 2.0 to 4.0
4 | CC[C@H]1OC(=O)[C@H](C)[C@@H](O[C@H]2C[C@@](C)(OC)[C@@H](O)[C@H](C)O2)[C@H](C)[C@@H](O[C@@H]2O[C@H](C)C[C@H](N(C)C)[C@H]2O)[C@](C)(O)C[C@@H](C)CN(C)[C@H](C)[C@@H](O)[C@]1(C)O [Azithromycin, azithromycin] | 0.005 to 0.02 | 0.3 to 0.5 | > 0.02 | 0.1 to 0.3 | no growth on blood agar plates | 0.1 to 0.5 | – | – | – | – | –
